Holding throughout (assay): microbe, parasite or virus in culture
Common to all, as to design: agar dilution antibacterial assay, minimum inhibitory concentration
On the technique in general: In agar dilution the substance is mixed into plates at graded concentrations.

One assay relates to S. epidermidis. Particulars: Staphylococcus epidermidis, 24 h. The protocol:
(§1) Antibacterial activity was determined by agar dilution method according to the method as described. […], […], Staphylococcus epidermidis, Staphylococcus aureus and Bacillus subtilis were used as the tested bacteria. After incubation for 24 h at 37 °C, the MICs were calculated (Table S3).

In another assay the test system is S. aureus. As to conditions: Staphylococcus aureus, 24 h. As for the experimental part:
as §1

For a further assay, the system named is S. pyogenes. Particulars: Streptococcus pyogenes, 24 h. As for the experimental part: as §1
The next assay deals with Bacillus subtilis. As to conditions: 24 h. As for the experimental part: as §1
The subject of another assay is S. pneumoniae. Particulars: Streptococcus pneumoniae, 24 h. As for the experimental part: as §1

Each structure is given as a SMILES string. Values after ≈ are worked out from the molar mass of the structure shown. Like-named read-outs stand apart in the source and are kept apart here. Some results are limits rather than exact numbers.

The text below walks through data of paper PMC4753412, “Involvement of an octose ketoreductase and two acyltransferases in the biosynthesis of paulomycins” (Scientific Reports, 2016).

Take `CC=C(N=C=S)C(=O)OC1C(COC(C)=O)OC(C2(O)CC(=O)C(N)=C(C(=O)O)C2=O)C(O)C1OC1CC(OC)C(O)(C(C)OC(=O)C(C)CC)C(C)O1` (stereo not shown) [compound 3, 3]: the MIC was 0.05 µg/mL (≈ 0.0635 µM) with S. epidermidis (read-out: MIC 3); 0.1 µg/mL (≈ 0.127 µM) in the assay on S. aureus (read-out: MIC 3); 0.025 µg/mL (≈ 0.0318 µM) in the assay with S. pyogenes (read-out: MIC 3); 0.1 µg/mL (≈ 0.127 µM) in the assay with Bacillus subtilis (read-out: MIC 3); 0.05 µg/mL (≈ 0.0635 µM) in the assay on S. pneumoniae (read-out: MIC 3).

With `C/C=C(\N=C=S)C(=O)O[C@H]1[C@@H](O[C@H]2C[C@H](OC)[C@@](O)([C@H](C)OC(=O)C(C)C)[C@H](C)O2)[C@@H](O)[C@H]([C@@]2(O)CC(=O)C(=N)C(C(=O)O)=C2O)O[C@@H]1COC(C)=O` [compound 4, paulomycin B], the MIC is 0.05 µg/mL (≈ 0.0647 µM) in the assay on S. epidermidis (read-out: MIC 4); 0.1 µg/mL (≈ 0.129 µM) in the assay with S. aureus (read-out: MIC 4); 0.025 µg/mL (≈ 0.0324 µM) in the assay on S. pyogenes (read-out: MIC 4); 0.1 µg/mL (≈ 0.129 µM) in the assay on Bacillus subtilis (read-out: MIC 4); 0.05 µg/mL (≈ 0.0647 µM) with S. pneumoniae (read-out: MIC 4).

For the compound `CC=C(N=C=S)C(=O)OCC1OC(C2(O)CC(=O)C(N)=C(C(=O)O)C2=O)C(O)C(OC2CC(OC)C(O)(C(C)OC(=O)C(C)C)C(C)O2)C1O` (stereo not shown) [compound 8, 8], the MIC in the assay with S. epidermidis (read-out: MIC 8) was > 100 µg/mL; in the assay on S. aureus (read-out: MIC 8) it was > 100 µg/mL; in the assay on S. pyogenes (read-out: MIC 8), > 50 µg/mL; in the assay with Bacillus subtilis (read-out: MIC 8), > 100 µg/mL; with S. pneumoniae (read-out: MIC 8), > 100 µg/mL.

Turning to `CC=C(N=C=S)C(=O)OCC1OC(C2(O)CC(=O)C(N)=C(C(=O)O)C2=O)C(O)C(OC2CC(OC)C(O)(C(C)OC(=O)C(C)CC)C(C)O2)C1O` (stereo not shown) [compound 9, 9], the MIC with S. epidermidis (read-out: MIC 9) is > 100 µg/mL; in the assay with S. aureus (read-out: MIC 9) it was > 100 µg/mL; in the assay with S. pyogenes (read-out: MIC 9) it was > 50 µg/mL; in the assay on Bacillus subtilis (read-out: MIC 9) it was > 100 µg/mL; in the assay with S. pneumoniae (read-out: MIC 9) it was > 100 µg/mL.

For `CC=C(N=C=S)C(=O)OCC1OC(C2(O)CC(=O)C(N)=C(C(=O)O)C2=O)C(O)C(OC2CC(OC)C(O)(C(C)=O)C(C)O2)C1O` (stereo not shown) [compound 10, 10], the MIC in the assay on S. epidermidis (read-out: MIC 10), in the assay on S. aureus (read-out: MIC 10), in the assay with S. pyogenes (read-out: MIC 10), in the assay with Bacillus subtilis (read-out: MIC 10) and in the assay with S. pneumoniae (read-out: MIC 10) was > 100 µg/mL in each case.
